Laboratory results published in US20250295619A1, “Use of Salvianolic Acid E in the Preparation of Drugs Targeting Senescent Cells, Inhibiting Tumors or Extending Lifespan” (Shanghai Institute of Nutrition and Health, Chinese Academy …, priority 2024, published 2025).
“Also recorded” adds a separate entry of the source.

Legend:
[1] = tested on: PSC27; experiment: Caspase 3/7 apoptosis detection in senescent PSC27 cells (IncuCyte); assay type: cell-based, human; conditions: 20 μM QVD-OPh, 200 μM SAE
Experimental: PSC27 cells gradually entered the senescent stage after being treated with BLEO for 12 hours under culture conditions. 200 μM SAE was added to the medium of senescent cells starting from day 7, NucLight Rapid Red reagent was used to label the cells and caspase 3/7 reagent (IncuCyte) was used for apoptosis detection. Caspase 3/7 activity was detected every 4 hours (n=3).
Statistical differences are obtained by two-way ANOVA (Turkey'test).
PSC27 cells were plated in a 96-well dish, and the cells were induced to senescence under 50 μg/ml of BLEO treatment. SAE and ABT263 were added at concentrations of 200 μM and 1.25 μM, respectively. Cell culture medium was supplemented with Incucyte Nuclight fast Red Reagent (Essen Bioscience) and Incucyte C-3/7 Apoptosis Reagent (Essen Bioscience). Representative field of view was selected to take pictures.

[2] = tested on: PC3/PSC27 transplanted tumors; experiment: PC3/PSC27 xenograft tumor volume in NOD/SCID mice; assay type: in vivo, mouse; conditions: for effect on tumors when combined with MIT: combination with MIT vs MIT alone; for effect on tumor volume of chemotherapeutic drug combined with SAE: combination with SAE vs chemotherapeutic drug alone
Experimental: Every two weeks was a dosing cycle, and MIT (mitoxantrone) was intraperitoneally administered to the mice on the first day of the 3rd/5th/7th weeks. From the first day of the 5th week, the mice were intraperitoneally administered with SAE, […]. After the 8-week course of treatment, the mice were dissected for pathological identification and expression analysis.
All experimental mouse experiments were carried out in strict accordance with the relevant regulations of the Institutional Animal Care and Use Committee (IACUC), Shanghai Institutes for Biological Sciences, Chinese Academy of Sciences. Immuno-deficient mice (NOD-SCID mice, ICR) (body weight about 25 g) aged 6-8 weeks were used for animal experiments related to the present patent. Stromal cells PSC27 and epithelial cells PC3 were mixed at a predetermined ratio of 1:4, and each graft contained 1.25×10^6 cells for tissue remodeling. The xenograft tumors were implanted into mice by subcutaneous transplantation, and the animals were euthanized 8 weeks after the end of the transplantation surgery. Tumor volume was calculated according to the following formula: V=(π/6)×((1+w)/2)3 (V, volume; l, length; w, width).
(§1) In a preclinical treatment trial, subcutaneously transplanted mice were fed with a standard experimental diet, after 2 weeks chemotherapy drugs mitoxantrone (MIT, dose: 0.2 mg/kg) and/or SAE (500 μl, dose: 10 mg/kg) via intraperitoneal administration. The time points were: the former was administrated on the first day of the 3rd, 5th and 7th weeks, and the latter was administrated on the first day of the 5th and 7th weeks. A total of 3 cycles of MIT administration were carried out throughout the course of treatment, and each cycle lasted for 2 weeks. After the course of treatment, mouse tumors were harvested for volume measurement and histological analysis. Each mouse cumulatively received 0.6 mg/kg body weight of MIT and 30 mg/kg body weight of SAE. In order to cause systemic expression of SASP factors induced by chemotherapy, MIT was administered to mice through intravenous infusion according to the above steps and sequence, but the dose was reduced to 0.1 mg/kg body weight/each time (the cumulative dose of MIT received in the whole course of treatment was 0.3 mg/kg body weight) to reduce drug-related toxicity. The chemotherapy experiment ended at the end of the 8th week, and the mice were dissected immediately after sacrifice, and the xenograft tumors were collected and used for pathological system analysis.

[3] = tested on: senescent cells in tumor tissue; experiment: SA-β-Gal staining of tumor tissues of PC3/PSC27 tumor-bearing mice; assay type: in vivo, mouse; conditions: MIT alone
Experimental: Representative pictures after SA-β-Gal staining. Scale bar, 100 μm.
as §1

[4] = tested on: SASP factors; experiment: LCM and qRT-PCR of SASP factors in mouse lesions; assay type: in vivo; conditions: after MIT administration
Experimental: The stromal cells and cancer cells were specifically separated by LCM technology, total RNA was prepared and used for SASP expression detection. ^, P>0.05; *, P<0.05; **, P<0.01.
as §1, with “The chemotherapy experiment ended at the end of the 8th week, and the mice were dissected immediately after sacrifice, and the xenograft tumors were collected and used for pathological system analysis.” left out

[5] = tested on: PC3/PSC27 tumors; experiment: DNA damage and apoptosis in tumors of treated mice; assay type: in vivo, mouse; conditions: single agent compared with placebo, 7 days after first SAE administration
Description: To investigate mechanisms directly supporting this senescence-associated pattern with expression and reversal of SASP in MIT-administered mice, the inventors dissected tumors in animals treated with both drugs 7 days after the first SAE administration, and the time point of 7 days after administration was selected mainly because drug-resistant clones had not yet formed in cancer cells in the lesion at this time. […] As supporting evidence, when SAE was applied during treatment, caspase 3 cleavage activity was increased, which was a typical hallmark of apoptosis (FIG. 29).

[6] = tested on: PSC27; experiment: SA-β-Gal staining of PSC27 cells (bleomycin-induced senescence, increasing SAE concentration); assay type: cell-based, human; conditions: PSC27 treated with bleomycin 50 μg/ml, vs control cells
Experimental: The P value of positive proportion of cells in these experimental groups for SAE at the concentrations of 100 μM, 200 μM, 400 μM, 800 μM, 1600 μM, 2000 μM and 3000 μM are statistically significant compared with the data at 0 μM.
(§2) To cause cell damage, 50 μg/mL bleomycin (bleomycin, BLEO) was added to the culture medium when PSC27 cells grew to 80% (abbreviated as PSC27-CTRL). After 12 hours of drug treatment, the cells were simply washed 3 times with PBS, left in the culture medium for 7-10 days, and then the subsequent experiments were performed.
Senescence-associated B-galactosidase (SA-β-Gal) staining was performed following a previously reported procedure (Debacq-Chainiaux, et. al., 2009). Briefly, cells in culture dishes were washed with PBS and fixed at room temperature. Cells were fixed in 2% formaldehyde and 0.2% glutaraldehyde for 3 minutes. SA-β-Gal was used for staining with freshly prepared staining solution overnight at 37° C. Images were taken on the next day and the percentage of positive cells per unit area was calculated.

[7] = tested on: PSC27; experiment: BrdU and γH2AX immunofluorescence staining of PSC27 cells after bleomycin; assay type: cell-based, human; conditions: PSC27 treated with bleomycin
Experimental: as §2
For immunofluorescent staining, target cells were pre-seeded on a coverslip for at least 24 h after culture in dishes. After a brief wash, the cells were fixed with 4% paraformaldehyde in PBS for 8 min and blocked with 5% normal goat serum (NGS, Thermo Fisher) for 30 min. Mouse monoclonal antibody-anti-phospho-Histone H2A.X (Ser139) (clone JBW301, Millipore) and mouse monoclonal antibody-anti-BrdU (Cat #347580, BD Biosciences), and secondary antibody Alexa Fluor®488 (or 594)-conjugated F (ab′) 2 were sequentially added to the slides coated with the fixed cells. Nuclei were counterstained with 2 μg/ml of 4′, 6-diamidino-2-phenylindole (DAPI). The most representative image was selected from the three observation fields for data analysis and result display. FV1000 laser scanning confocal microscope (Olympus) was used to acquire confocal fluorescent images of cells.

Molecule: CC(C)[C@H](NC(=O)c1ccc2ccccc2n1)C(=O)N[C@@H](CC(=O)O)C(=O)COc1c(F)cccc1F [QVD, reference compound]
- effect of pan-caspase inhibitor on killing of senescent cells by SAE [1]: could prevent the killing of senescent cells by SAE

Molecule: O=C1c2c(O)ccc(O)c2C(=O)c2c(NCCNCCO)ccc(NCCNCCO)c21 [MIT, mitoxantrone]
- reduction in tumor size compared to placebo-treated group ([2]; single agent, end of 8 weeks): 44.1%
- senescent cells in the tumor tissue after MIT administration [3]: induced the appearance of a large number of senescent cells
- expression of SASP factors in lesions (mainly stromal cells) [4]: significantly increased; also recorded: significantly elevated expression
- degree of DNA damage and apoptosis [5]: significant increase

Molecule: salvianolic acid J [SAJ]
- effect on tumors when combined with MIT [2]: no significant effects

Molecule: CC(=O)O[C@@]12CO[C@@H]1C[C@H](O)[C@@]1(C)C(=O)[C@H](O)C3=C(C)[C@@H](OC(=O)[C@H](O)[C@@H](NC(=O)OC(C)(C)C)c4ccccc4)C[C@@](O)([C@@H](OC(=O)c4ccccc4)[C@H]21)C3(C)C [DOC, docetaxel]
- effect on tumor volume of chemotherapeutic drug combined with SAE [2]: no further tumor shrinkage
- tumor volume when chemotherapeutic drug used alone [2]: reduce the tumor volume

Molecule: bleomycin
- positive rate of senescence-associated β-galactosidase (SA-β-Gal) staining [6]: significant increase
- BrdU incorporation rate ([7]; vs control cells): greatly reduced
- DNA damage repair foci (DDR foci) ([7]; γH2AX staining): significantly increased
- effect on tumor volume of chemotherapeutic drug combined with SAE [2]: roughly repeat the significant effect

Molecule: CC[C@]1(O)C[C@H]2CN(CCc3c([nH]c4ccccc34)[C@@](C(=O)OC)(c3cc4c(cc3OC)N(C=O)[C@H]3[C@@](O)(C(=O)OC)[C@H](OC(C)=O)[C@]5(CC)C=CCN6CC[C@]43[C@@H]65)C2)C1 [VIN, vincristine]
- effect on tumor volume of chemotherapeutic drug combined with SAE [2]: no further tumor shrinkage
- tumor volume when chemotherapeutic drug used alone [2]: reduce the tumor volume

Molecule: COc1cccc2c1C(=O)c1c(O)c3c(c(O)c1C2=O)C[C@@](O)(C(=O)CO)C[C@@H]3O[C@H]1C[C@H](N)[C@H](O)[C@H](C)O1 [DOX, doxorubicin]
- effect on tumor volume of chemotherapeutic drug combined with SAE [2]: roughly repeat the significant effect

Molecule: O=C(/C=C/c1ccc(O/C(=C\c2ccc(O)c(O)c2)C(=O)O)c(O)c1)OC(Cc1ccc(O)c(O)c1)C(=O)O (stereo not shown) [SAI, salvianolic acid I]
- effect on tumors when combined with MIT [2]: no significant effects
